Publication PMC7827406, “Structure–Activity Relationship (SAR) Study of Spautin-1 to Entail the Discovery of Novel NEK4 Inhibitors” (International Journal of Molecular Sciences, 2021)
Where two headings read alike, the source gives them in different places.

What was measured:
Assay in all cases: biochemical
Design in all cases: Eurofins KinaseProfiler full panel at Km ATP, residual kinase activity (%) relative to DMSO
CK1ε(h) = biological target: T1, CK1ε(h) (Homo sapiens, UniProt P49674)
T1 construct: gene CSNK1E
Method in brief: (§1)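 Radiometric kinase activity assays were run with ATP at Km and compounds at 10 µM, and remaining activity (%) was reported. A separate competitive binding screen measured DNA-tagged kinase displaced from immobilized active-site ligands by qPCR, giving percent kinase still bound at 10 µM compound in DMSO.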

CaMKIγ(h) = biological target: T2, CaMKIγ(h) (Homo sapiens, UniProt Q96NX5)
T2 construct: gene CAMK1G
Method in brief: as §1

GRK7(h) = biological target: T3, GRK7(h) (Homo sapiens, UniProt Q8WTQ7)
T3 sequence (Q8WTQ7 1-553): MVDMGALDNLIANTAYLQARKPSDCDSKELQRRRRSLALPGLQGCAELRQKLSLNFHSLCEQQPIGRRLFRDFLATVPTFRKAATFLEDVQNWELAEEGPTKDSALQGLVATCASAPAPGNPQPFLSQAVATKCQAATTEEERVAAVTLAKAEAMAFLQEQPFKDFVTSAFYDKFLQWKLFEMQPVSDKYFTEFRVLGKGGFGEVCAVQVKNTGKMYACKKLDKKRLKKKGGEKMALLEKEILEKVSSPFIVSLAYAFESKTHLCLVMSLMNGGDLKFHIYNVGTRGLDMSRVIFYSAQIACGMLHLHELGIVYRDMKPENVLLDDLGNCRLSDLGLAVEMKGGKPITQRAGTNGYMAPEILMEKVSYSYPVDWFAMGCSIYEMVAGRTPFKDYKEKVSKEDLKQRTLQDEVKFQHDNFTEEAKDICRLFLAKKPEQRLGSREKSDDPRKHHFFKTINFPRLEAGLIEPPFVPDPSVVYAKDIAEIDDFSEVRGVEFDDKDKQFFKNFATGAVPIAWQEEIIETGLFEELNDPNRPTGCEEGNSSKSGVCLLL
Method in brief: as §1

PAK5(h) = PAK5(h) (Homo sapiens, UniProt Q9P286)
Method in brief: as §1

[1] = biological target: T4, PI3 Kinase (p110a/p65a)(m) (Mus musculus, UniProt P42337)
T4 construct: gene Pik3ca; with p65a
Method in brief: as §1

PIP5K1g(h) = biological target: T5, PIP5K1g(h) (Homo sapiens, UniProt O60331)
T5 construct: gene PIP5K1C
Method in brief: as §1

TAO3(h) = biological target: T6, TAO3(h) (Homo sapiens, UniProt Q9H2K8)
T6 construct: gene TAOK3
T6 sequence (Q9H2K8 1-898): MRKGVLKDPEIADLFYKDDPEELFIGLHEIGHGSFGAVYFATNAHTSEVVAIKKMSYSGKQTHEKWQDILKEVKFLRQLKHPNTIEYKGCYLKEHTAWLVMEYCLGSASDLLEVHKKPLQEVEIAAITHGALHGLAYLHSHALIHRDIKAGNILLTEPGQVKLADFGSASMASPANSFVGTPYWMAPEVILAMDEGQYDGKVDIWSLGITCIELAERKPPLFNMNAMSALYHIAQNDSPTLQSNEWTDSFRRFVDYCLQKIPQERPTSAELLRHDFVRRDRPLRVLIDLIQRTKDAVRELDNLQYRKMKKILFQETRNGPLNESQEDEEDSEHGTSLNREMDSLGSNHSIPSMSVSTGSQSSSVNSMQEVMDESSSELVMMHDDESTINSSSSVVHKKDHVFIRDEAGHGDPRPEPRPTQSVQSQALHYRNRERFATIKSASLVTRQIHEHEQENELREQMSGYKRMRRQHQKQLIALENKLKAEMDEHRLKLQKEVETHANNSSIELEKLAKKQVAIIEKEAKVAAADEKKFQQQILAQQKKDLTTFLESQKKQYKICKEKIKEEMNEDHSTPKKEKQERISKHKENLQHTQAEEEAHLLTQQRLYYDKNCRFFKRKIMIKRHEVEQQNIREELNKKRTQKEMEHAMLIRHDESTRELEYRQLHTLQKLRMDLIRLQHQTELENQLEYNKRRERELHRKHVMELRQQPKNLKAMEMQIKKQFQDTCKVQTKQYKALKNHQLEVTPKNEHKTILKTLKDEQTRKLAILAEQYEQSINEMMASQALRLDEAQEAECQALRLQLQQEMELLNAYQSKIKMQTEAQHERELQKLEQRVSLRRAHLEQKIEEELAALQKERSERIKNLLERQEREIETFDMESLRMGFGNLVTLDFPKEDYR
Method in brief: as §1

[2] = read-out: Residual activity (%) 5at
[3] = read-out: Residual activity (%) 5as
[4] = read-out: Residual activity (%) 5ay
[5] = read-out: Residual activity (%) Spautin-1 5aa

T1 sequence (P49674 whole entry): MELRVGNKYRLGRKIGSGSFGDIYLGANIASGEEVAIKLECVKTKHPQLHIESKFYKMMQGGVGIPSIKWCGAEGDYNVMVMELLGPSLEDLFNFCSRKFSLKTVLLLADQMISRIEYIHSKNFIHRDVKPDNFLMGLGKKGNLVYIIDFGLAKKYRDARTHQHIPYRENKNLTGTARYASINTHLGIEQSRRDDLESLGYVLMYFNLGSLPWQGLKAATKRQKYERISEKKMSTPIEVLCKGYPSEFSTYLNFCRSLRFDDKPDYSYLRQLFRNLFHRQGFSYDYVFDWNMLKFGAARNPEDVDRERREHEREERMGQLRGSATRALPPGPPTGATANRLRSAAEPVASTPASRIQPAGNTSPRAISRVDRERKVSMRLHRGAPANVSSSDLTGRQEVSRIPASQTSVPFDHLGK
T4 sequence (P42337 whole entry): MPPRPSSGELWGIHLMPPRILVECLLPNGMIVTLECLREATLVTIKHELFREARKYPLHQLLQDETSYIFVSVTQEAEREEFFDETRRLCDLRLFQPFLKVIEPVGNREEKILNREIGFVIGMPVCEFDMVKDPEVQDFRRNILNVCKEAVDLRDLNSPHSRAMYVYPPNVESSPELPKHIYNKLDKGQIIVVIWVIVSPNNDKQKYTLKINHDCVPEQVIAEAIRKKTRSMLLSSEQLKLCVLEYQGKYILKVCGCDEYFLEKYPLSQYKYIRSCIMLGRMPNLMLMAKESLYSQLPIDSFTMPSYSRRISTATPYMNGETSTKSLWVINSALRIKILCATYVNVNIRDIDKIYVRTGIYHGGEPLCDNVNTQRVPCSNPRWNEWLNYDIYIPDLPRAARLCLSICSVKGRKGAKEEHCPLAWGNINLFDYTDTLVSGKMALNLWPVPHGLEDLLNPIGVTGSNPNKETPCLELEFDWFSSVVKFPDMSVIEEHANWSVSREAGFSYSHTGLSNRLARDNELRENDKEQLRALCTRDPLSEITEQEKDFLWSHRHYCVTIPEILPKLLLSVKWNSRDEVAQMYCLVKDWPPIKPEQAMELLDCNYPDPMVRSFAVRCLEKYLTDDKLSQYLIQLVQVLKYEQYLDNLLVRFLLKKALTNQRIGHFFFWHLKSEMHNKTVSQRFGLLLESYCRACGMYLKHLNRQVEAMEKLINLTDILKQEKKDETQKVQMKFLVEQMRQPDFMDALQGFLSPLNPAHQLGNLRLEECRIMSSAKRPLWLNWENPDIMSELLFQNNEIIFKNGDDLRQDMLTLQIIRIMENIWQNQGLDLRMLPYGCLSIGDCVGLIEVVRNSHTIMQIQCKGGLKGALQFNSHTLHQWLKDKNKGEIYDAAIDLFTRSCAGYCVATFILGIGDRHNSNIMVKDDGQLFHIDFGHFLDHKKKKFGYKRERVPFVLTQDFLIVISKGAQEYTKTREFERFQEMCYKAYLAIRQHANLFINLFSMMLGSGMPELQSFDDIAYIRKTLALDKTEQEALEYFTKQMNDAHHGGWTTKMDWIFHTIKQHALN
T4 sequence (P26450 whole entry partner): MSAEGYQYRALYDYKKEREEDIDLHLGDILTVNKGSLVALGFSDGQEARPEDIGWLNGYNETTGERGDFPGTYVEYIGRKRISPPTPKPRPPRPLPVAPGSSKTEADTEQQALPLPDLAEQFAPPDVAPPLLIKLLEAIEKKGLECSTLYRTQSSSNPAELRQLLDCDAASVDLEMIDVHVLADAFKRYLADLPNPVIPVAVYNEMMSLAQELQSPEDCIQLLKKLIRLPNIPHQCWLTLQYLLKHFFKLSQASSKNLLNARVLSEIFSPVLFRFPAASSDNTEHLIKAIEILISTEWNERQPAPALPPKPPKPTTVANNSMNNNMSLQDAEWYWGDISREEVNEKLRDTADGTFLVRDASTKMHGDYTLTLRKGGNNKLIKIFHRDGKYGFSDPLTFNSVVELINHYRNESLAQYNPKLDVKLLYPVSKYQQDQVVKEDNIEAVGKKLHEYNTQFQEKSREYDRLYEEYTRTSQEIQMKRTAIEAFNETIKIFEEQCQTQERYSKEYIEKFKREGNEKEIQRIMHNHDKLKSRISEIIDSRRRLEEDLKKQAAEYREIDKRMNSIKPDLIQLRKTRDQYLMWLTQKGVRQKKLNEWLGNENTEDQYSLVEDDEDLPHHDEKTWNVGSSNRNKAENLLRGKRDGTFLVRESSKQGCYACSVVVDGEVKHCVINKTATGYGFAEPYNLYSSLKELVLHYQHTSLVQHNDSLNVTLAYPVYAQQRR
PAK5(h), sequence (Q9P286 whole entry): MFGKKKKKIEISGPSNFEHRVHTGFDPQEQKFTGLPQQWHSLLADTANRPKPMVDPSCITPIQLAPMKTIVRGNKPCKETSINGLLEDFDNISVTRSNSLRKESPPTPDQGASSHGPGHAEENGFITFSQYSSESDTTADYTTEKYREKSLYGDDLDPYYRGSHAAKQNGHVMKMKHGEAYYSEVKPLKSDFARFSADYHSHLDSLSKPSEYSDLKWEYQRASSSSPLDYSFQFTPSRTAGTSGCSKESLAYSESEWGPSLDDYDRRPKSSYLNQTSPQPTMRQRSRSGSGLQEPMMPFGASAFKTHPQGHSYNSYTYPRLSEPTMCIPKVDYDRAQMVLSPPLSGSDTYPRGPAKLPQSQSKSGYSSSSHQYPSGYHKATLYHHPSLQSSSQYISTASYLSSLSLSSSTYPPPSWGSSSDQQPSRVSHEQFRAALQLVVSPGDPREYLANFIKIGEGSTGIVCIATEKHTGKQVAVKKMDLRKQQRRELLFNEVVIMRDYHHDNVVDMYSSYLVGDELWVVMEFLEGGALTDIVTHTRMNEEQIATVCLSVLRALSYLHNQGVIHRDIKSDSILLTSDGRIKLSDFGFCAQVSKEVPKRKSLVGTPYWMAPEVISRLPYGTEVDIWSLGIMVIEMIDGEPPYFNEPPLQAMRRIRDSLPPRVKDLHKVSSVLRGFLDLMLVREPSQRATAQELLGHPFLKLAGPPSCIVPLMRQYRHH
T2 sequence (Q96NX5 whole entry): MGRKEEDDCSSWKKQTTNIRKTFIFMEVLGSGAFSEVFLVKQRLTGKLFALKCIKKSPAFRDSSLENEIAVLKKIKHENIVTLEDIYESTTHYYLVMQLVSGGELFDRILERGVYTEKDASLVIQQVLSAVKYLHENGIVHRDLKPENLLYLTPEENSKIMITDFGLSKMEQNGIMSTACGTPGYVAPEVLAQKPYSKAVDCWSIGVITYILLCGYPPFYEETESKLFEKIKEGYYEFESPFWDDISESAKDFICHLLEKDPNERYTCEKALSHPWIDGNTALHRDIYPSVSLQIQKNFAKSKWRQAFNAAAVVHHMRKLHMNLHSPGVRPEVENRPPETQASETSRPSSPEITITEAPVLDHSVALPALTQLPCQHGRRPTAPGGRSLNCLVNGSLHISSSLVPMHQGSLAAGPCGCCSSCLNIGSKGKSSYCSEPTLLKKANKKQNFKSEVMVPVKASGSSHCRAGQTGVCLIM
T5 sequence (O60331 whole entry): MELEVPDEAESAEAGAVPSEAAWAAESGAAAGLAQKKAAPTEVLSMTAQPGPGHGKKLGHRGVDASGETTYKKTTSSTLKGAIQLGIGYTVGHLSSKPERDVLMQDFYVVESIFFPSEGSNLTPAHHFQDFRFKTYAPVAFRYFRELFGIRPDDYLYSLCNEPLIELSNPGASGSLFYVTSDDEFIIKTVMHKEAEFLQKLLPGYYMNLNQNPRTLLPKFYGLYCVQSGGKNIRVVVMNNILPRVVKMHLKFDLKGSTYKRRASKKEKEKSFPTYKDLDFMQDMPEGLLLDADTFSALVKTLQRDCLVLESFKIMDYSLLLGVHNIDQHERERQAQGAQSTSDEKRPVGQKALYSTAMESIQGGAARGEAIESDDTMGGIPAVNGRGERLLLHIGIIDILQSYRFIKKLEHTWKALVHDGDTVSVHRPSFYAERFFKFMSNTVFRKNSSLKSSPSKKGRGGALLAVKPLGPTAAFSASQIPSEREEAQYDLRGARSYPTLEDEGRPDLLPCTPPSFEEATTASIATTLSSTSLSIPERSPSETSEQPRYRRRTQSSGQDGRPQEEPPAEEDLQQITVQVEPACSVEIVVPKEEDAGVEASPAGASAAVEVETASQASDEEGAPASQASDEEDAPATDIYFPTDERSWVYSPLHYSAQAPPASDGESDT

Q: Which results are given for `Fc1ccc2ncnc(NCCc3ccc(Cl)cc3)c2c1` [5at, N-[2-(4-Chlorophenyl)Ethyl]-6-Fluoro-4-Quinazolinamine]?
A: remaining activity at 10 µM (CK1ε(h); [2]): 82%; remaining activity at 10 µM (CaMKIγ(h); [2]): 87%; remaining activity at 10 µM (GRK7(h); [2]): 93%; remaining activity at 10 µM (PAK5(h); [2]): 86%; remaining activity at 10 µM [1, 2]: 87%; remaining activity at 10 µM (PIP5K1g(h); [2]): 101%; remaining activity at 10 µM (TAO3(h); [2]): 82%

Q: For `Fc1ccc(CCNc2ncnc3ccc(F)cc23)cc1` [5as, 6-Fluoro-N-[2-(4-Fluorophenyl)Ethyl]-4-Quinazolinamine], which remaining activity at 10 µM (CK1ε(h); [3]) is on record?
A: The remaining activity at 10 µM was 76%.

Q: What about the remaining activity at 10 µM (CaMKIγ(h); [3]) of the same compound?
A: The remaining activity at 10 µM was 94%.

Q: What about the remaining activity at 10 µM (GRK7(h); [3]) of the same compound?
A: Its remaining activity at 10 µM is 95%.

Q: And the remaining activity at 10 µM (PAK5(h); [3])?
A: The remaining activity at 10 µM was 85%.

Q: And the remaining activity at 10 µM [1, 3]?
A: The remaining activity at 10 µM was 86%.

Q: What about the remaining activity at 10 µM (PIP5K1g(h); [3]) of the same compound?
A: Its remaining activity at 10 µM is 104%.

Q: What about the remaining activity at 10 µM (TAO3(h); [3]) of the same compound?
A: The remaining activity at 10 µM was 78%.

Q: With `COc1ccc2ncnc(Nc3cccc(F)c3)c2c1` [5ay, N-(3-Fluorophenyl)-6-Methoxy-4-Quinazolinamine] as the compound, how does the remaining activity at 10 µM (CK1ε(h); [4]) read?
A: Its remaining activity at 10 µM is 78%.

Q: What about the remaining activity at 10 µM (CaMKIγ(h); [4]) of the same compound?
A: The remaining activity at 10 µM was 94%.

Q: And the remaining activity at 10 µM (GRK7(h); [4])?
A: The remaining activity at 10 µM was 91%.

Q: What about the remaining activity at 10 µM (PAK5(h); [4]) of the same compound?
A: The remaining activity at 10 µM was 83%.

Q: What about the remaining activity at 10 µM [1, 4] of the same compound?
A: Its remaining activity at 10 µM is 101%.

Q: What about the remaining activity at 10 µM (PIP5K1g(h); [4]) of the same compound?
A: The remaining activity at 10 µM was 107%.

Q: What about the remaining activity at 10 µM (TAO3(h); [4]) of the same compound?
A: Its remaining activity at 10 µM is 77%.

Q: `Fc1ccc(CNc2ncnc3ccc(F)cc23)cc1` [5aa, 6-Fluoro-N-(4-fluorobenzyl)-4-Quinazolinamine] was tested. Which remaining activity at 10 µM (CK1ε(h); [5]) did it give?
A: Its remaining activity at 10 µM is 87%.

Q: What about the remaining activity at 10 µM (CaMKIγ(h); [5]) of the same compound?
A: Its remaining activity at 10 µM is 95%.

Q: And the remaining activity at 10 µM (GRK7(h); [5])?
A: The remaining activity at 10 µM was 87%.

Q: What about the remaining activity at 10 µM (PAK5(h); [5]) of the same compound?
A: The remaining activity at 10 µM was 95%.

Q: And the remaining activity at 10 µM [1, 5]?
A: Its remaining activity at 10 µM is 98%.

Q: What about the remaining activity at 10 µM (PIP5K1g(h); [5]) of the same compound?
A: Its remaining activity at 10 µM is 100%.

Q: What about the remaining activity at 10 µM (TAO3(h); [5]) of the same compound?
A: Its remaining activity at 10 µM is 94%.
